Data: ChEMBL document CHEMBL1127147, “Rational design for cytosolic delivery of nucleoside monphosphates : SATE and DTE as enzyme-labile transient phosphate protecting groups” (Bioorg Med Chem Lett, 1993)

Key:
CEM-TK(-) [1] = test: Tested for antiviral activity against HIV-1 infected human CEM-TK- cell line (deficient in thymidine kinase activity); type: functional, cell-based
CEM-SS [2] = test: Tested for antiviral activity against HIV-1 infected human CEM-SS cell line; type: functional, cell-based
CEM-SS [3] = test: Tested for cytotoxicity against human CEM-SS cell line; Percent reduction 40; type: functional
CEM-TK(-) [4] = test: Tested for cytotoxicity against human CEM-TK- cell line (deficient in thymidine kinase activity); type: functional
CEM-SS [5] = test: Tested for cytotoxicity against human CEM-SS cell line; type: functional

Question: Which EC50 (CEM-TK(-) [1]) does the source give for O=c1ccn(C2CCC(COP(=O)(OCCSSCCO)OCCSSCCO)O2)c(=O)[nH]1 (stereo not drawn) here?
Answer: The EC50 was 8 µM.

Question: What about the EC50 (CEM-SS [2]) of the same molecule?
Answer: The EC50 was 60 µM.

Question: And the CC50 (CEM-SS [3])?
Answer: Its CC50 is greater than 100 µM.

Question: And the CC50 (CEM-TK(-) [4])?
Answer: Its CC50 is 80 µM.

Question: CC(=O)SCCOP(=O)(OCCSC(C)=O)OCC1CCC(n2ccc(=O)[nH]c2=O)O1 (stereo not drawn) was tested. Which EC50 (CEM-TK(-) [1]) did it give?
Answer: The EC50 was 4 µM.

Question: What about the CC50 (CEM-SS [5]) of the same molecule?
Answer: The CC50 was 900 µM.

Question: What about the EC50 (CEM-SS [2]) of the same molecule?
Answer: Its EC50 is 5 µM.

Question: And the CC50 (CEM-TK(-) [4])?
Answer: Its CC50 is 70 µM.
